Results reported in PubChem BioAssay AID1963976 (Molecular Pharmacology Branch, DTP, NCI, 2024).
Values belong to the compound of their own block, whether it stands above or below them.

Test system: 435261-313-R-J1-PDC tumor spheroid viability
Test: Anticancer human tumor 435261-313-R-J1-PDC patient-derived colon adenocarcinoma cell line growth inhibition [PI3K]
Conditions: spheroids with HUVEC and MSC; for IC50: curve of first compound; for viability, T/C: stronger effect = lower value
Outline: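 Viability of mixed-cell spheroids was determined after exposure to pairwise combinations, one partner being inavolisib, alpelisib, duvelisib or copanlisib. Highest tested concentration matched clinical Cmax where known and 10 microM where not, descending in half-log steps.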

[1] = second compound 0.00316 µM, first compound 0.0316 µM
[2] = second compound 0.00316 µM, first compound 0.1 µM
[3] = second compound 0.00316 µM, first compound 0.316 µM
[4] = second compound 0.00316 µM, first compound 1 µM
[5] = second compound 0.00316 µM, first compound 3.16 µM
[6] = second compound 0.00316 µM, first compound 10 µM
[7] = second compound 0.01 µM, first compound 0.0316 µM
[8] = second compound 0.01 µM, first compound 0.1 µM
[9] = second compound 0.01 µM, first compound 0.316 µM
[10] = second compound 0.01 µM, first compound 1 µM
[11] = second compound 0.01 µM, first compound 3.16 µM
[12] = second compound 0.01 µM, first compound 10 µM
[13] = second compound 0.0316 µM, first compound 0.0316 µM
[14] = second compound 0.0316 µM, first compound 0.1 µM
[15] = second compound 0.0316 µM, first compound 0.316 µM
[16] = second compound 0.0316 µM, first compound 1 µM
[17] = second compound 0.0316 µM, first compound 3.16 µM
[18] = second compound 0.0316 µM, first compound 10 µM
[19] = second compound 0.1 µM, first compound 0.0316 µM
[20] = second compound 0.1 µM, first compound 0.1 µM
[21] = second compound 0.1 µM, first compound 0.316 µM
[22] = second compound 0.1 µM, first compound 1 µM
[23] = second compound 0.1 µM, first compound 3.16 µM
[24] = second compound 0.1 µM, first compound 10 µM
[25] = second compound 0.316 µM, first compound 0.0316 µM
[26] = second compound 0.316 µM, first compound 0.1 µM
[27] = second compound 0.316 µM, first compound 0.316 µM
[28] = second compound 0.316 µM, first compound 1 µM
[29] = second compound 0.316 µM, first compound 3.16 µM
[30] = second compound 0.316 µM, first compound 10 µM
[31] = second compound 1 µM, first compound 0.0316 µM
[32] = second compound 1 µM, first compound 0.1 µM
[33] = second compound 1 µM, first compound 0.316 µM
[34] = second compound 1 µM, first compound 1 µM
[35] = second compound 1 µM, first compound 3.16 µM
[36] = second compound 1 µM, first compound 10 µM
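Note: spheroids exposed to compounds for 7 days.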

- IC50 (second compound 0.00316 µM): > 10000 nM
- IC50 (second compound 0.01 µM): < 31.6 nM
- IC50 (second compound 0.0316 µM): < 31.6 nM
- IC50 (second compound 0.1 µM): < 31.6 nM
- IC50 (second compound 0.316 µM): < 31.6 nM
- IC50 (second compound 1 µM): < 31.6 nM
Compound: C=CC(=O)N1CCN(c2nc(=O)n(-c3c(C)ccnc3C(C)C)c3nc(-c4c(O)cccc4F)c(F)cc23)C(C)C1 (stereo unspecified) + COc1c(OCCCN2CCOCC2)ccc2c3n(c(=NC(=O)c4cnc(N)nc4)nc12)CCN3
- viability, T/C [1]: 86.8%
- viability, T/C [2]: 78.2%
- viability, T/C [3]: 99%
- viability, T/C [4]: 63.5%
- viability, T/C [5]: 101%
- viability, T/C [6]: 97.9%
- viability, T/C [7]: 45.5%
- viability, T/C [8]: 56.6%
- viability, T/C [9]: 47.7%
- viability, T/C [10]: 64.7%
- viability, T/C [11]: 60.2%
- viability, T/C [12]: 85%
- viability, T/C [13]: 25.5%
- viability, T/C [14]: 36.7%
- viability, T/C [15]: 29%
- viability, T/C [16]: 30.6%
- viability, T/C [17]: 26.3%
- viability, T/C [18]: 30.6%
- viability, T/C [19]: 15.9%
- viability, T/C [20]: 16.5%
- viability, T/C [21]: 17.5%
- viability, T/C [22]: 18.7%
- viability, T/C [23]: 15.4%
- viability, T/C [24]: 16.1%
- viability, T/C [25]: 8.2%
- viability, T/C [26]: 8.82%
- viability, T/C [27]: 7.92%
- viability, T/C [28]: 8.17%
- viability, T/C [29]: 6.9%
- viability, T/C [30]: 5.27%
- viability, T/C [31]: 4.55%
- viability, T/C [32]: 3.78%
- viability, T/C [33]: 3.56%
- viability, T/C [34]: 3.98%
- viability, T/C [35]: 3.29%
- viability, T/C [36]: 2.04%

- IC50 (second compound 0.00316 µM): 3170 nM
- IC50 (second compound 0.01 µM): 31.6 nM
- IC50 (second compound 0.0316 µM): < 31.6 nM
- IC50 (second compound 0.1 µM): < 31.6 nM
- IC50 (second compound 0.316 µM): < 31.6 nM
- IC50 (second compound 1 µM): < 31.6 nM
Compound: CC1(C)CCC(Nc2ncc(C(F)(F)F)c(-c3c[nH]c4c(P(C)(C)=O)c(C#N)ccc34)n2)CN1 (stereo unspecified) + COc1c(OCCCN2CCOCC2)ccc2c3n(c(=NC(=O)c4cnc(N)nc4)nc12)CCN3
- viability, T/C [1]: 56.2%
- viability, T/C [2]: 58.8%
- viability, T/C [3]: 54.5%
- viability, T/C [4]: 57.2%
- viability, T/C [5]: 50.1%
- viability, T/C [6]: 0.44%
- viability, T/C [7]: 42.3%
- viability, T/C [8]: 43.9%
- viability, T/C [9]: 49.2%
- viability, T/C [10]: 47.7%
- viability, T/C [11]: 58.8%
- viability, T/C [12]: 0.48%
- viability, T/C [13]: 31.6%
- viability, T/C [14]: 32.6%
- viability, T/C [15]: 33.7%
- viability, T/C [16]: 30.9%
- viability, T/C [17]: 21.5%
- viability, T/C [18]: 0.35%
- viability, T/C [19]: 17.8%
- viability, T/C [20]: 16.8%
- viability, T/C [21]: 15.5%
- viability, T/C [22]: 18.6%
- viability, T/C [23]: 7.14%
- viability, T/C [24]: 0.28%
- viability, T/C [25]: 7.08%
- viability, T/C [26]: 6.11%
- viability, T/C [27]: 5.71%
- viability, T/C [28]: 5.56%
- viability, T/C [29]: 2.4%
- viability, T/C [30]: 0.23%
- viability, T/C [31]: 3.57%
- viability, T/C [32]: 2.68%
- viability, T/C [33]: 3.18%
- viability, T/C [34]: 2.83%
- viability, T/C [35]: 1.6%
- viability, T/C [36]: 0.23%

- IC50 (second compound 0.0316 µM): > 10000 nM
- IC50 (second compound 0.1 µM): > 10000 nM
- IC50 (second compound 0.316 µM): < 31.6 nM
- IC50 (second compound 1 µM): < 31.6 nM
- IC50 (second compound 3.16 µM): < 31.6 nM
- IC50 (second compound 10 µM): < 31.6 nM
Compound: CNC(=O)c1ccc(N2C(=S)N(c3ccc(C#N)c(C(F)(F)F)c3)C(=O)C2(C)C)cc1F + Cc1nc(NC(=O)N2CCCC2C(N)=O)sc1-c1ccnc(C(C)(C)C(F)(F)F)c1
- viability, T/C [13]: 81.8%
- viability, T/C [14]: 78.2%
- viability, T/C [15]: 103%
- viability, T/C [16]: 75%
- viability, T/C [17]: 93.5%
- viability, T/C [18]: 84.2%
- viability, T/C [19]: 70.8%
- viability, T/C [20]: 52.1%
- viability, T/C [21]: 71.5%
- viability, T/C [22]: 61.4%
- viability, T/C [23]: 83.7%
- viability, T/C [24]: 77.1%
- viability, T/C [25]: 27.3%
- viability, T/C [26]: 59.3%
- viability, T/C [27]: 46.2%
- viability, T/C [28]: 61.7%
- viability, T/C [29]: 75.8%
- viability, T/C [30]: 45.7%
- viability, T/C [31]: 26.3%
- viability, T/C [32]: 30.4%
- viability, T/C [33]: 24.8%
- viability, T/C [34]: 37.4%
- viability, T/C [35]: 23.9%
- viability, T/C [36]: 25.1%
- viability, T/C (second compound 3.16 µM, first compound 0.0316 µM): 18.9%
- viability, T/C (second compound 3.16 µM, first compound 0.1 µM): 17.4%
- viability, T/C (second compound 3.16 µM, first compound 0.316 µM): 12.7%
- viability, T/C (second compound 3.16 µM, first compound 1 µM): 17.8%
- viability, T/C (second compound 3.16 µM, first compound 3.16 µM): 14%
- viability, T/C (second compound 3.16 µM, first compound 10 µM): 9.85%
- viability, T/C (second compound 10 µM, first compound 0.0316 µM): 9.39%
- viability, T/C (second compound 10 µM, first compound 0.1 µM): 8.74%
- viability, T/C (second compound 10 µM, first compound 0.316 µM): 8.22%
- viability, T/C (second compound 10 µM, first compound 1 µM): 8.91%
- viability, T/C (second compound 10 µM, first compound 3.16 µM): 8.18%
- viability, T/C (second compound 10 µM, first compound 10 µM): 5.56%
